Data from patent US7527935B2, “G-protein coupled receptor having eicosanoid as ligand and gene thereof” (Mitsubishi Tanabe Pharma Corporation, priority 2002, dated 2009).

Experiments:
[1] = test system: TG1019 (5-oxo-ETE receptor); experiment: Intracellular calcium level in CHO cells stably expressing TG1019; type: cell-based, human; conditions: FuraII 340/380 nm ratio
Method: (1) Preparation of cells stably expressing TG1019 Cells stably expressing TG1019 (the receptor protein of the present invention) and cells not expressing TG1019 were prepared by introducing to CHO cells the TG1019 protein expression vector prepared in Example 5 and the control vector, as described below.
The cells stably expressing TG1019 prepared in the above section (1) was incubated in DMEM/F12 medium supplemented with 10% fetal bovine serum at 37° C. in a CO2 incubator. To the cells which were 80 to 90% confluent, was added a cell dissociation buffer (Cell Dissociation Buffer Enzyme-free PBS-based, available from Invitrogen), and cells were dissociated by incubating at 37° C. for 5 minutes. […]
The cells after loading were centrifuged once with an assay buffer, to remove supernatant, and then, they were suspended in an assay buffer to have a concentration of 3.7 to 6.3×10^6 cells/ml. This cell suspension was portioned into a 96 well plate by 80 μl/well, and the plate was set in a fluorescence measuring device (FDSS6000, [Hamamatsu Photonics]), and the reaction was started by adding a solution containing 5-oxo-ETE or 5-HETE in a 5 fold concentration dissolved in an assay buffer, by 20 μl/well. The measurement was done by measuring fluorescence intensity at 510 nm, with excitation wavelength of 340 nm and 380 nm.

[2] = biological target: T1, fusion protein of TG1019 protein and Giα1 (351Cys→Ile) (Homo sapiens, UniProt P63096+Q8TDS5, C351I/D111G/K206E/T295A); experiment: [35S]GTPγS binding to membrane fraction containing TG1019-Giα1 (351Cys→Ile) fusion protein (ligand identification); type: biochemical; conditions: membrane fraction with TG1019-Giα1 (351Cys→Ile) fusion protein
T1 construct: made in house; host or cells: Sf9 insect cells (baculovirus, pVL1392), membrane fraction
Text: As stated in Example 1, it is concluded that TG1019 protein is a G-protein coupled receptor. Therefore, using a membrane fraction containing fused protein of TG1019 and G-protein, a ligand is identified as follows, according to a method for detecting a ligand-dependent binding with GTPγS (guanosine 5′-O-(3-thiotriphosphate)) [Wenzel-Seifert, et al., Mol. Pharmacom., Vol. 58, pp. 954-966, 2000; Bahia, et al., Biochemistry, Vol. 37, pp. 11555-11562, 1998].
Sf9 cells were inoculated onto a 10 cm Petri dish coated with collagen to about 70% confluence, and added thereto were Virus solution III (100 μl) obtained above and 12 ml of a culture medium, and the mixture was cultured at 27° C. for 4 days. The obtained cells were washed with a cooled PBS (Phosphate buffered saline, pH 7.4), and suspended in 3.6 ml of a cooled solution buffer [20 mM Tris-HCl, pH 7.5, 1 mM EDTA, 0.2 mM phenylmethylsulfonyl fluoride, 10 μg/ml pepstatin, 10 μg/ml leupeptin, and 2 μg/ml aprotinin], and the cells were homogenized by means of a Teflon homogenizer. This cell homogenate was centrifuged (600×g, 10 minutes), and the resultant supernatant was further centrifuged (50,000×g, 20 minutes). The obtained sediments were suspended in 450 μl of a cooled reaction buffer [20 mM Tris-HCl, pH 7.5, 50 mM sodium chloride, 10 mM magnesium chloride] by means of a Teflon homogenizer, to prepare a membrane fraction containing a fusion protein.
The membrane fraction (450 μl) obtained above (2) was suspended in a reaction buffer (7.54 ml), and added thereto was GDP (10 mM, 10 μl). To 160 μl of this solution was added 20 μl of a test compound. After incubating the mixture at 30° C. for 10 minutes, 20 μl of [^35S] GTPγS (5 nM, 5 nCi/μl: available from Amersham Pharmacia Biotech) was added to start reaction. After incubating the mixture at 30° C. for one hour, the reaction was terminated by filtration through a glass filter (UniFilter-96GF/B, available from Packard). The filter was washed with 200 μl of a cooled reaction buffer for 3 times, and an amount of the [^35S] GTPγS (a binding amount to the membrane fraction) on the filter was measured by liquid scintillation counting. From the thus measured [^35S] GTPγS binding amount was subtracted a nonspecific binding amount (a binding amount measured in the presence of 10 μM GTPγS), to obtain a specific binding amount of [^35S ] GTPγS.

T1 sequence (Q8TDS5+P63096 fused Q8TDS5:D111G/Q8TDS5:K206E/Q8TDS5:T295A/P63096:C351I): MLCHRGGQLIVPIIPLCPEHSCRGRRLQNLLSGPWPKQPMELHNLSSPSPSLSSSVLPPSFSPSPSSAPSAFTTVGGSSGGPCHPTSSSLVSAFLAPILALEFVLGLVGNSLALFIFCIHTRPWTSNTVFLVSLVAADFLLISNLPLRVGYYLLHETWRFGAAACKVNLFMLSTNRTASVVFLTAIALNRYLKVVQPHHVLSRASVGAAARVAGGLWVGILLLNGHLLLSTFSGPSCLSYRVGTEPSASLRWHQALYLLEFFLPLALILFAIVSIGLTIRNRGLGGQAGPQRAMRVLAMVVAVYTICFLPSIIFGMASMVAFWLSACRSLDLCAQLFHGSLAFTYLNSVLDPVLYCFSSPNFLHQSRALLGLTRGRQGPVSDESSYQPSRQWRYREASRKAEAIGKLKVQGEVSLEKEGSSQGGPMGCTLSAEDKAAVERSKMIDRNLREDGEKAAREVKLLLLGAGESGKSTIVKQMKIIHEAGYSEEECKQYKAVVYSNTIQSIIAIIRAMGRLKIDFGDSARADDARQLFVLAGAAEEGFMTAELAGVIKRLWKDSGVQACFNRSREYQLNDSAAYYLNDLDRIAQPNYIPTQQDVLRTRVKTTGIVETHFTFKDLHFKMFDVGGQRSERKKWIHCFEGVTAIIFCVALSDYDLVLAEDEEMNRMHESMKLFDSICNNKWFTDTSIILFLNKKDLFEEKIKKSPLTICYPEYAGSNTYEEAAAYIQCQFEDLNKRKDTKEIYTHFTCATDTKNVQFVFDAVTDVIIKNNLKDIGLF

Question: With `CCCCC/C=C\C/C=C\C/C=C\C=C\C(=O)CCCC(=O)O` [5-oxo-ETE, 5-oxo-6E,8Z,11Z,14Z-eicosatetraenoic acid] as the compound, how does the “change in intracellular calcium level” value [1] read?
Answer: Its value is “increase in intracellular calcium level”.

Question: What about the “specific binding amount of [35S]GTPγS” value [2] of the same compound?
Answer: The value was “increased in a concentration-dependent manner”.
